Experimental data from article PMC11137182, “Selective and brain-penetrant ACSS2 inhibitors target breast cancer brain metastatic cells” (Frontiers in Pharmacology, 2024).

Key:
4T1BR cells = experiment: Intracranial 4T1BR tumor model in vivo; design: species or system BalbC mice
Protocol: Intracranial injections were performed as previously described ([Ciraku et al., 2021]). Briefly, Nu/Nu or BalbC female 4–6 week old mice from Charles River Laboratories (Wilmington, MA, United States) were immobilized using the Just for Mice ™ Stereotaxic Frame (Harvard Apparatus, Holliston, MA, United States) and injected intracranially with 5 μL of a 20,000 cells/μL solution of MDA-MB-231BR or 4T1BR cells stably expressing luciferase. Mice were injected intraperitoneally with 30 mg/kg of Dluciferin solution (Caliper Life Sciences, Hopkinton, MA) and results analyzed using Living Image software (Caliper Life Sciences, Waltham, MA, United States). For in vivo analog trials, mice were weighed daily and injected intraperitoneally with 50 mg/kg of AD-8007. Mice were euthanized 3 weeks after injection following survivial or at the end of drug treatment at indiciated day. The animal study was reviewed and approved by the Institutional Animal Care and Use Committee.
Brains were dissected, fixed in 4% formalin and prepared for processing/sectioning/embedding/blocking to generate paraffin embedded slides. The slides containing brain metastatic tumors were deparaffinized by Xylene and subsequent rehydration was done by decreasing concentrations of ethanol-water mixture. Antigen retrieval was done by citrate buffer immersion and steaming the slides for 45 min. Tissue was treated with 200–400 ul 1% BSA+5% serum PBS solution for 1h. Primary incubation was done at 4 °C overnight using primary antibody anti-FasN (Cell Signaling Technologies, C20G5). Secondary antibody incubation was done for an hour at RT with HRP conjugated Anti-Rabbit Secondary antibody (Cell Signaling Technologies). at 1:100 dilution. For IHC the stain was developed using the DAB kit by Vectastain (Vector Labs, Burlingame, CA, United States). Finally, slides were mounted and imaged under a light microscope. H&E and Ki-67 staining were performed and assessed at TJU, Department of Pathology, Philadelphia, PA by board-certified pathologist.

MDR1 (P-gp) = experiment: Bi-directional permeability across MDR1-MDCK cell monolayer (BBB assay); format: in vitro ADME, canine; conditions: dog, MDR1-MDCK I monolayer
Description: (§1) This assay provides the apparent permeability coefficient (Papp), efflux ratio, and % recovery to assess compound permeation.

MDR1-MDCK cells = experiment: as above; format: in vitro ADME, canine; conditions: MDR1-MDCK BBB assay
Description: as §1

[1] = Human liver microsome stability; conditions: human, liver microsomes
[2] = BBB permeability in vivo (LC-MS, brain over blood); design: species or system BalbC mice; conditions: mice, 50 mg/kg intraperitoneal, 30 min (AD-5584) or 1 h (AD-8007, VY-3-135)
Protocol: Human ACSS2 inhibitors were prepared in 10 mg/mL saline solution. BalbC 4–6 week-old mice were weighed and injected with 50 mg/kg or 100 mg/kg of drug saline solution via intraperitoneal injection. After 30 min or 60 min, mice treated with AD-5584 or AD-8007 and VY-3-135 were placed in isoflurane, and blood was extracted and perfused via intracardiac injection. Following perfusion, mice were decapitated, and their brains were rapidly removed into ice-cold PBS. For analysis of blood samples, 200 µL of blood was transferred and allowed to clot for 15 min at room temperature. Samples were precipitated at 16000xg for 1 min, and 50 µL of serum was transferred. To serum, 200 µL of methanol was added, and samples were centrifuged at 16000 g for 5 min. The supernatant was analyzed by LCMS. For analysis of brain samples, brains were homogenized via bead beating using four 2.3 mm stainless steel beads in 1 mL of MeOH and 0.5 mL of H2O. After centrifugation for 15 min at 3000xg, the supernatant was analyzed by LCMS. LCMS was performed on an Acquity I-Class UPLC system coupled to a Synapt G2Si HDMS mass spectrometer in positive ion mode with a heated electrospray ionization (ESI) source in a Z-spray configuration. […] Data was analyzed using Waters MassLynx and Waters Unifi. Calibration curves of authentic standards were used for quantification.

MDA-MB-231BR cells = experiment: Clonogenic survival assay; format: cell-based; conditions: 100 μM, 48 h treatment, 10 days growth
Protocol: Triple-negative brain trophic cells MDA-MB-231BR and 4T1BR cells were a kind gift from Dr. Patricia Steeg (Center for Cancer Research, National Cancer Institute) ([Achrol et al., 2019]). Both cell lines were cultured in DMEM supplemented with 10% fetal bovine serum (FBS), 5% 10,000 Units/mL Penicillin-10,000 μg/mL Streptomycin, and 5% 200 mM L-Glutamine. For crystal violet staining, 5 × 10^4 cells were plated and subjected to the treatments as described in the individual figures and then stained with 0.5% crystal violet prepared in a 1:1 methanol-water solution followed by PBS washes. ACSS2 inhibitors were dissolved in 100% ultra-pure DMSO.
To assess clonogenic survival, 1 × 10^5 cells were seeded into a 6-well plate until 70%–80% confluency and treated for 48 h with analogs at 100 uM (unless otherwise stated in the figure legend). After 48 h, cells were trypsinized and counted using hemocytomer, and 1 × 10^4 cells per treatment were plated into a 6-well plate with fresh culture medium and allowed to grow for 10 days. Following 10-day incubation, cells were washed twice with PBS, stained with crystal violet for 30 min, and washed with dH2O twice. Colonies >50mircons were counted. For crystal violet staining, 0.5% crystal violet was prepared in a 1:1 methanol-water solution.

N[C@H](C(=O)N1CCCC(c2ccccc2)(c2ccccc2)C1)C1CC1 [AD-8007]
Ki-67 staining (4T1BR cells; 4T1BR intracranial, 10 days post treatment): reduced Ki-67 staining
survival (4T1BR cells; 4T1BR intracranial, Kaplan Meyer): significantly extended survival
tumor burden (bioluminescence) (4T1BR cells; 4T1BR intracranial, immunecompetent mice, 10 days): reduced tumor burden
body weight (4T1BR cells; immunecompetent mice, 10 days): did not cause significant weight lost
Papp A→B (MDR1 (P-gp); A to B): 2.81 ×10⁻⁶ cm/s
Papp B→A (MDR1 (P-gp); B to A): 25.2 ×10⁻⁶ cm/s
efflux ratio (in words) (MDR1-MDCK cells): low efflux ratio
permeability (in words) (MDR1-MDCK cells): moderate permeability
CLint scaled [1]: < 8.6 mL/min/kg
microsomal CLint [1]: < 9.6 µL/min/mg
half-life ([1]; Human Liver Microsome Stability T1/2, human liver microsomes): > 2.42 h
level of drug in the brain over blood [2]: detected at significantly higher levels in the brain compared to VY-3-135
clonogenic survival (MDA-MB-231BR cells): significant reduction in clonogenic survival
